Several values for one entry are separate records, joined by “and”; a condition that tells them apart may be missing. Identical values can stand only once.
Columns and labels:
L1210 leukemia = experiment: Antitumor activity vs transplantable L1210 leukemia (ip) in mice; format: in vivo, mouse; conditions: for Max % T/C: dying mice only; for OD (optimum dose): optimum dose from the L1210 test
From the text: The antitumor activities of the complexes provided by the present invention have been determined against L-1210 leukemia in the mouse and, for certain of the complexes, against other mouse tumor systems.
(§1) Results of antitumor testing against the transplantable mouse tumors L1210 leukemia, cisplatin-resistant L1210 leukemia, B16 melanoma, Madison 109 lung carcinoma and colon 26 carcinoma are shown below in Tables 1 and 2.
In Table 1 are shown the maximum % T/C values obtained for each platinum compound versus L1210 leukemia using both single and qd 1→5 dosing.
(§2) The methods used to evaluate the platinum complexes for antitumor activity and toxicity in animals are summarized below. These methods have been published elsewhere in more detail (Rose, et al. Cancer Treat. Rep. 66: 135, 1982; Florczyk, et al, Cancer Treat. Rep. 66: 187, 1982).
(§3) The parent line of L1210 leukemia (L1210) was maintained in DBA/2 mice by ip transplantation of 10^5 cells at weekly intervals. […] B16 malenoma (B16) was maintained by sc transplant in C57BL/6 mice every two weeks. Madison 109 lung carcinoma (M109) and colon 26 carcinoma (C26) were maintained by sc transplant in BALB/c mice every two weeks.
(§4) The level and route of tumor inoculum, host, group size, and drug treatment schedule and route for each tumor type are summarized below in Table 6. Each complex was evaluated initially against L1210 at 4 dose levels per schedule selected on the basis of lethality data provided by the Wadley Institute. In subsequent experiments with the other tumors the complexes were evaluated at a minimum of 3 dose levels selected on the basis of maximum tolerated levels in the L1210 experiments. Cisplatin-treated groups and a saline-treated (or untreated) tumor control group were included in each experiment.
(§5) The L1210 experiments were terminated on Day 30 whereas the B16, C26 and M109 experiments were terminated on Day 60 (some C26 experiments were terminated on Day 75). Mice alive at the termination day were autopsied and considered cured if no tumor was visible. […] A complex was considered active if it produced a % T/C value ≥125.

[1] = test system: L1210/CDDP (cisplatin resistant line of L1210 leukemia); experiment: Antitumor activity vs cisplatin-resistant L1210 leukemia (L1210/CDDP) in mice; format: in vivo, mouse; conditions: for Cures/total / O.D. (optimal dose): Day 1; for Max % T/C: Day 1, dying mice only
From the text: Results of antitumor testing against the transplantable mouse tumors L1210 leukemia, cisplatin-resistant L1210 leukemia, B16 melanoma, Madison 109 lung carcinoma and colon 26 carcinoma are shown below in Tables 1 and 2. […]
as §2, §3, §4, §5

B16 melanoma = experiment: Antitumor activity vs ip B16 melanoma in mice; format: in vivo, mouse; parameters: O.D.: unit not given here; conditions: for O.D.: ip B16 (3×; 9×); for Max. % T/C: ip B16 (3×; 9×): q4d × 3 or qd 1-9, ip, dying mice only
From the text: as §2, §3
The level and route of tumor inoculum, host, group size, and drug treatment schedule and route for each tumor type are summarized below in Table 6. Each complex was evaluated initially against L1210 at 4 dose levels per schedule selected on the basis of lethality data provided by the Wadley Institute.
as §5

C26 carcinoma = experiment: Antitumor activity vs ip C26 (colon 26) carcinoma in mice; format: in vivo, mouse; parameters: O.D.: unit not given here; conditions: for O.D.: ip C26 (2×; 4×); for Max. % T/C: ip C26 (2×; 4×): q3d × 2 or qd 1-4, ip, dying mice only
From the text: as §1, §2, §3, §4, §5
8 q3d^b × 2 or qd 1-4, ip

M109 carcinoma = experiment: Antitumor activity vs ip M109 (Madison 109 lung) carcinoma in mice; format: in vivo, mouse; parameters: O.D.: unit not given here; conditions: for O.D.: ip M109 (2×; 4×); for Max. % T/C: ip M109 (2×; 4×): q3d × 2 or qd 1-4, ip, dying mice only
From the text: as §1, §2, §3, §4, §5
8 q3d^a × 2 or qd 1-4, ip

BDF1 mice [2] = experiment: Nephrotoxicity: effect on blood urea nitrogen (BUN) in BDF1 mice; conditions: for BUN↑, Mouse: effect relative to cisplatin
Procedure: The other compounds were in such short supply that they were tested for effects on BUN values using the optimum dose (O.D.) from the L1210 test for dose selection.
The toxicity studies were done in male BDF1 mice (25-29 gm) and castrated male Fitch ferrets (1-1.5 kg).
The complexes that were active against L1210 were evaluated for nephrotoxicity by determining their effects on blood urea nitrogen (BUN) levels in mice. Groups of 40-50 mice/experiment were bled from the retro-orbital plexus and individual BUN values determined by a modified urease method using a Centrifichem System 400. The test complex, or saline for controls, was given at several dose levels (5-10 mice/dose) in single ip injections. The highest dose of the complex usually corresponded to its LD50 value or 1.5 times its optimal single dose in the L1210 experiment. At least two lower doses were included to evaluate dose-related effects. The BUN values were measured 4 and 7 days after dosing. BUN values ≥30 mg% were considered indicative of drug-induced nephrotoxicity.

BDF1 mice [3] = experiment: Deaths (D.14) in the BUN test in BDF1 mice; format: in vivo, mouse
ferret = experiment: Emetic effects (and lethality) in the ferret; format: in vivo, castrated male Fitch ferrets; conditions: for No. With Emesis/No. tested: 6 h observation
Procedure: Selected complexes were evaluated for emetic effects in ferrets. […] The time to the first emetic episode (retching and expulsion of vomitus) and the number of episodes were recorded. […] Subsequent test doses were selected based on the emetic response and lethality of the initial dose.

[4] = L1210, single dose Day 1, ip, (a), (b) determinations
[5] = L1210, single dose Day 1, ip, dose giving the Max % T/C, same order

SMILES	O.D. (optimal dose) (L1210 leukemia; L1210, QD 1 → 5, ip)	Max % T/C (L1210 leukemia; L1210, QD 1 → 5, ip)	Max % T/C (L1210 leukemia; [4])	O.D. (optimal dose) (L1210 leukemia; [5])	OD (optimum dose) (L1210 leukemia)	Cures/total [1]	O.D. (optimal dose) [1]	Max % T/C [1]	O.D. (B16 melanoma)	Max. % T/C (B16 melanoma)	O.D. (C26 carcinoma)	Max. % T/C (C26 carcinoma)	O.D. (M109 carcinoma)	Max. % T/C (M109 carcinoma)	BUN↑, Mouse (BDF1 mice [2])	Incidence of BUN > 30 mg % (BDF1 mice [2]; 30 mg/kg ip)	Deaths D.14 (BDF1 mice [3]; 30 mg/kg ip)	other results
N[C@@H]1CCCC[C@H]1N.[O-]B([O-])O.[Pt+2] [Example 1, borato trans(-)-1,2-diaminocyclohexane platinum(II)]	2 mg/kg/inj	243%	214% and 242%	16 mg/kg/inj and 8 mg/kg/inj	16 mg/kg/ip	2/6	8 mg/kg/inj	188%	1	150%	5	134%	2	147%	0			Incidence of BUN > 30 mg % (BDF1 mice [2]; 16 mg/kg ip): 0/5; Incidence of BUN > 30 mg % (BDF1 mice [2]; 24 mg/kg ip): 0/3; Deaths D.14 (BDF1 mice [3]; 16 mg/kg ip): 0/5; Deaths D.14 (BDF1 mice [3]; 24 mg/kg ip): 3/5
N[C@@H]1CCCC[C@H]1N.O=C([O-])CC(=O)C(=O)[O-].[Pt+2] (relative stereo) [Example 2, oxaloacetato trans(-)-1,2-diaminocyclohexane platinum(II)]	7.5 mg/kg/inj	243%	214% and 217%	30 mg/kg/inj and 40 mg/kg/inj	30 mg/kg/ip	4/6	24 mg/kg/inj	194%	2	150%	10	143%	12	156%	0	0/5	0/5	Incidence of BUN > 30 mg % (BDF1 mice [2]; 45 mg/kg ip): 0/4; Emesis Episodes (ferret; 16 mg/kg iv): 3; Emesis onset in responding animals (ferret; 16 mg/kg iv): 41 min; No. With Emesis/No. tested (ferret; 16 mg/kg iv): 1/1; Deaths D.14 (BDF1 mice [3]; 45 mg/kg ip): 1/5
N[C@@H]1CCCC[C@H]1N.O=C([O-])CCC(=O)C(=O)[O-].[Pt+2] (relative stereo) [Example 14, 2-ketoglutarato trans(-)-1,2-diaminocyclohexane platinum(II)]	16 mg/kg/inj	250%	214% and 193%	16 mg/kg/inj		2/6	12 mg/kg/inj	169%	3	135%								
N[C@@H]1CCCC[C@H]1N.[O]=[Cr](=[O])([O-])[O-].[Pt+2] (relative stereo) [Example 9, chromato trans(-)-1,2-diaminocyclohexane platinum(II)]	6 mg/kg/inj and 12 mg/kg/inj	143% and 214%	150% and 200%	24 mg/kg/inj and 48 mg/kg/inj	48 mg/kg/ip				6	172%	24	106%	20	119%	0			Incidence of BUN > 30 mg % (BDF1 mice [2]; 48 mg/kg ip): 0/5; Incidence of BUN > 30 mg % (BDF1 mice [2]; 72 mg/kg ip): 0/5; Deaths D.14 (BDF1 mice [3]; 48 mg/kg ip): 0/5; Deaths D.14 (BDF1 mice [3]; 72 mg/kg ip): 0/5
CC(=O)CC(=O)[O-].CC(=O)CC(=O)[O-].N[C@@H]1CCCC[C@H]1N.[Pt+2] (relative stereo) [Example 4, bis(acetoacetato) trans(-)-1,2-diaminocyclohexane platinum(II)]	5 mg/kg/inj	214%	200% and 207%	20 mg/kg/inj and 18 mg/kg/inj	20 mg/kg/ip		12 mg/kg/inj	163%	1	150%	5	120%	8	119%	0	0/5	0/5	Cures/total (L1210 leukemia; L1210, QD 1 → 5, ip): 1/6; Incidence of BUN > 30 mg % (BDF1 mice [2]; 20 mg/kg ip): 0/5; Deaths D.14 (BDF1 mice [3]; 20 mg/kg ip): 0/5
Cc1cn(C2CC(O)C(COP(=O)([O-])[O-])O2)c(=O)[nH]c1=O.NC1CCCCC1N.[Pt+2] (stereo not drawn) [Example 6, thymidylato trans(-)-1,2-diaminocyclohexane platinum(II)]	10 mg/kg/inj	221%	200% and 207%	40 mg/kg/inj and 45 mg/kg/inj	40 mg/kg/ip		20 mg/kg/inj	175%	6	177%	36	109%	12	95%	0			Incidence of BUN > 30 mg % (BDF1 mice [2]; 40 mg/kg ip): 0/5; Incidence of BUN > 30 mg % (BDF1 mice [2]; 60 mg/kg ip): 0/5; Emesis Episodes (ferret; 32 mg/kg iv): 13.5; Emesis onset in responding animals (ferret; 32 mg/kg iv): 17.5 min; No. With Emesis/No. tested (ferret; 32 mg/kg iv (lethal dose)): 2/2; Lethal dose (ferret; ferret, doses marked * = Lethal dose): 32 mg/kg iv; Deaths D.14 (BDF1 mice [3]; 40 mg/kg ip): 0/5; Deaths D.14 (BDF1 mice [3]; 60 mg/kg ip): 0/5

Reference: patent publication US4562275A, “Antitumor platinum complexes” (priority 1984, dated 1985)
